{"source": "patent US10201165B2", "about": "(Board of Trustees of Michigan State University, priority 2014, dated 2019)", "key": {"fungi [1]": {"tested_on": "fungi", "conditions": "compound tentatively assigned to HPLC-MS peak around 255 g/mol; cited from earlier work"}, "Cladosporium cucumerinum": {"tested_on": "Cladosporium cucumerinum", "test": "TLC bioassay for detection of antimicrobial activity", "format": "cell-based", "conditions": "FIG. 3, white areas", "procedure": "A TLC-bioassay of extract from Prunus maackii, P. serotina, and P. mahelab was conducted using three different extraction methods. Periderm tissue was extracted in 80% acetone, in hot water, or in water in an autoclave. Extracts were tested for antimicrobial activity by a thin layer chromatography bioassay on cellulose TLC plates. Samples were separated with, and the plates were developed in, water.\nFor the TLC bioassay for the detection of antimicrobial activity, 5 μL of the samples (column fractions, suspended in 80% methanol) were applied to Analtech® silica gel (TLC) plates and were developed in a TLC tank (30×20×10 cm) using 100 mL of chloroform:methanol (8.5:1, v/v). Within 24 hours of developing the TLC plates, the plates were evenly sprayed with a dense fungal suspension of C. cucumerinum in ½ strength potato-dextrose broth and then placed in a moist incubation chamber for three days to allow fungal growth."}, "fungi [2]": {"tested_on": "fungi", "test": "Antifungal activity (test not specified)", "conditions": "compound identified from leaves of Prunus maackii"}}, "note": "Read-outs that look alike come from different tables or passages of the source."}
{"smiles": "O=C1C[C@@H](c2ccccc2)Oc2cc(O)cc(O)c21", "note": "[pinocembrin]", "values": [{"measurement": "Antifungal activity", "setting": "fungi [1]", "result": "antifungal activity"}]}
{"smiles": "COc1c(O)cc2oc(-c3ccccc3)c(O)c(=O)c2c1O", "note": "[alnusin, 3,5,7-trihydroxy-6-methoxyflavone]", "values": [{"measurement": "Fungal inhibition on TLC plate by isolated compounds", "setting": "Cladosporium cucumerinum", "result": "fungal inhibition"}]}
{"smiles": "COc1c(O)cc(O)c2c1OC(c1ccccc1)CC2=O", "note": "(stereo not drawn) [Dihydrowogonin, 5,7-dihydroxy-8-methoxy-2-phenyl-2,3-dihydrochromen-4-one]", "values": [{"measurement": "Antifungal activity", "setting": "fungi [2]", "result": "antifungal activity"}]}
